In ChEMBL document CHEMBL5725790, “Compositions and methods for the production of pyrimidine and pyridine compounds with BTK inhibitory activity” (2017):

The compounds below were run against Tyrosine-protein kinase BTK (Homo sapiens, UniProt Q06187) (assay: Enzyme Assay: The following describes a microfluidic, off-chip mobility shift kinase assay used to measure inherent potency of compounds against BTK enzyme. Compounds described by embodiments of the present invention were assayed using this protocol and the data from the same is recorded in Table 2 within the column labeled: Time Dependent BTK Enzyme Assay IC50. […] Stopped reactions were monitored at −2 PSI, −3000 V/−700 V in a LabChip 3000 plate reader from Caliper Life Sciences, a PerkinElmer Company (Hopkinton, Mass.), and the activity was measured by off-chip mobility shift assay measuring the charge/mass difference between substrate and product resulting from peptide phosphorylation. IC50 and efficacy were determined by plotting log [Inhibitor] vs. % Activity in GeneData Screener (Basel, Switzerland). Compounds described by embodiments of the present invention were assayed using this protocol and the data from the same is recorded in Table 2 within the column labeled: Time Dependent […] BTK Enzyme Assay IC50.).
Chain of Tyrosine-protein kinase BTK (Q06187 whole entry): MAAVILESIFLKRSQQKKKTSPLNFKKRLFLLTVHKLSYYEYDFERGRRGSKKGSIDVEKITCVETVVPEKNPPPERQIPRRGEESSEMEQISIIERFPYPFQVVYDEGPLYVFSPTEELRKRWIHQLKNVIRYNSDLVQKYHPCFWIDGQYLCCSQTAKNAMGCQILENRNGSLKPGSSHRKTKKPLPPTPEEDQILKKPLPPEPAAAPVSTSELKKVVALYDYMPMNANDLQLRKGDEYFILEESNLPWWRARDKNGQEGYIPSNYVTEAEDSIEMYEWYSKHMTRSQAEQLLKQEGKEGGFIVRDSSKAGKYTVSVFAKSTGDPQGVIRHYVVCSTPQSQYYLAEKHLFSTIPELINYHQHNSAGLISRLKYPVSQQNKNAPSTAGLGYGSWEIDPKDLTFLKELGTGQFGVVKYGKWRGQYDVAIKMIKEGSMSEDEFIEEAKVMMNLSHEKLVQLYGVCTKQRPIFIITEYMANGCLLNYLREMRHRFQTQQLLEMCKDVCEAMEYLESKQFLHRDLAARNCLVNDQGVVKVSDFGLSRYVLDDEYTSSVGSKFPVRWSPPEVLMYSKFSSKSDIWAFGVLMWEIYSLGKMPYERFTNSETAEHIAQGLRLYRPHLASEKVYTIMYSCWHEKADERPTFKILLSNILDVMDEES

SMILES	IC50 [nM]
CCC(=O)Nc1cccc(Oc2ccncc2-c2ccc(Oc3ccccc3)cc2)c1	> 1000
N#CC1(C(=O)Nc2cccc(-c3c(N)ncnc3Oc3ccc(Oc4ccccc4)cc3)c2)CC1	> 1000
C=CC(=O)Nc1cccc(Oc2ncnc(N)c2-c2cnn(Cc3cccc(S(C)(=O)=O)c3)c2)c1	< 1000
C=CC(=O)N1CC2(CC(Nc3ncnc(N)c3-c3cnn(Cc4ccncc4)c3)C2)C1	> 1000
C=CC(=O)Nc1cncc(Oc2ncnc(N)c2-c2ccc(Oc3ccc(C#N)cc3)cc2)c1	< 1000
Nc1ncnc(NC2CC3(C2)CN(S(=O)(=O)CCCl)C3)c1-c1ccc(Oc2ccccc2)cc1	< 100
C=CC(=O)Nc1cccc(Oc2ncnc(N)c2-c2ccc(Oc3ccccc3)cc2)c1F	< 100
CCC(=O)Nc1cccc(Oc2ccnc(C(N)=O)c2-c2ccc(Oc3ccccc3)cc2)c1	> 1000
